In ChEMBL document CHEMBL3785047, “Biological evaluation of synthetic α,β-unsaturated carbonyl based cyclohexanone derivatives as neuroprotective novel inhibitors of acetylcholinesterase, butyrylcholinesterase and amyloid-β aggregation” (Bioorg Med Chem, 2016):
pIC50: −log10 of the molar value.

How the values were obtained:
[1] = Cytotoxicity against rat PC12 cells assessed as reduction in cell viability at 0.01 to 100 uM after 24 hrs by MTT assay; format: cell-based; details: pc-12, 24 h
Cholinesterase = Cholinesterase (Equus caballus, UniProt P81908)
Cholinesterase, sequence (P81908 whole entry): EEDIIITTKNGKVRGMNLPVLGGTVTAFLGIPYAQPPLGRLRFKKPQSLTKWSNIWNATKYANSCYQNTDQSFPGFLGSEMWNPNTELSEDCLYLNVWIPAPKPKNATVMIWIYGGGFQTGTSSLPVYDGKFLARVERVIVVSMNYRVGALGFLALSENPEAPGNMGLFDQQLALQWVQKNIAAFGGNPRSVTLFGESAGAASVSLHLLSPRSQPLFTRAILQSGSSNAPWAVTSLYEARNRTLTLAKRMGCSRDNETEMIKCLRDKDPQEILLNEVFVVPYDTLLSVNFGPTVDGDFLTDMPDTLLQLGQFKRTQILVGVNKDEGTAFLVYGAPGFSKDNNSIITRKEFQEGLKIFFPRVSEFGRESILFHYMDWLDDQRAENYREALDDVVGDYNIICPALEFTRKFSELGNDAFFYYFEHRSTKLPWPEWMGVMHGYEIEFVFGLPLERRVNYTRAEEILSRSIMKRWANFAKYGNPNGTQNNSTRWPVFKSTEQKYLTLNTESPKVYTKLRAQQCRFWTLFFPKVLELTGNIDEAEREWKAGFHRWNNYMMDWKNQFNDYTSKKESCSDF
Description: Inhibition of horse serum BChE using butrylthiocholine iodide as substrate preincubated for 5 mins followed by substrate addition measured for 10 mins by modified Ellman's method

Acetylcholinesterase = Acetylcholinesterase (Electrophorus electricus, UniProt O42275)
Acetylcholinesterase, sequence (O42275 whole entry): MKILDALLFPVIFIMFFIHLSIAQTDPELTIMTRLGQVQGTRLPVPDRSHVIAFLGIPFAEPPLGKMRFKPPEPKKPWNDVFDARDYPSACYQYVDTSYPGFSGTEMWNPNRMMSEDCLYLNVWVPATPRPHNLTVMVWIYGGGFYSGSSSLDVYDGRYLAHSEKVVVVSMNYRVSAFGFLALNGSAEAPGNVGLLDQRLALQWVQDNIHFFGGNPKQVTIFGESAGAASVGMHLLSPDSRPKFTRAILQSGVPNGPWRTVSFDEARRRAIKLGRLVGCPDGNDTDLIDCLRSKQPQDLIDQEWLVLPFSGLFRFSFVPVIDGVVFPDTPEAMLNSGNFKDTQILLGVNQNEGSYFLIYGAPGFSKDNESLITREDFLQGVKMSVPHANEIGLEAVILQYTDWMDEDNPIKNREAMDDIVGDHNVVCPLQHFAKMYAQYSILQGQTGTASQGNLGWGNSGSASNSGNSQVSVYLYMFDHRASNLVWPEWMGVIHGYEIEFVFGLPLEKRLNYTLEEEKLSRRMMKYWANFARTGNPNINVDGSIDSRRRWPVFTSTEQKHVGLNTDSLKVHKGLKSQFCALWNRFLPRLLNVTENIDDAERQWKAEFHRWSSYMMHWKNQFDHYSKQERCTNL
Description: Inhibition of electric eel AChE using acetylthiocholine iodide as substrate preincubated for 5 mins followed by substrate addition measured for 10 mins by modified Ellman's method

PC-12 = assay: Neuroprotective activity against amyloid beta (1 to 42)-induced cell death in rat PC12 cells assessed as cell viability at 100 uM preincubated for 24 hrs followed by amyloid beta (1 to 42) addition measured after 1 day by MTT assay relative to control; format: functional; details: read-out: Activity
[2] = target: Amyloid-beta precursor protein (Homo sapiens) (UniProt P05067); assay: Inhibition of amyloid beta (1-42) (unknown origin) self-induced aggregation after 2 days by thioflavin T fluorometric assay
Amyloid-beta precursor protein (Homo sapiens), sequence (P05067 whole entry): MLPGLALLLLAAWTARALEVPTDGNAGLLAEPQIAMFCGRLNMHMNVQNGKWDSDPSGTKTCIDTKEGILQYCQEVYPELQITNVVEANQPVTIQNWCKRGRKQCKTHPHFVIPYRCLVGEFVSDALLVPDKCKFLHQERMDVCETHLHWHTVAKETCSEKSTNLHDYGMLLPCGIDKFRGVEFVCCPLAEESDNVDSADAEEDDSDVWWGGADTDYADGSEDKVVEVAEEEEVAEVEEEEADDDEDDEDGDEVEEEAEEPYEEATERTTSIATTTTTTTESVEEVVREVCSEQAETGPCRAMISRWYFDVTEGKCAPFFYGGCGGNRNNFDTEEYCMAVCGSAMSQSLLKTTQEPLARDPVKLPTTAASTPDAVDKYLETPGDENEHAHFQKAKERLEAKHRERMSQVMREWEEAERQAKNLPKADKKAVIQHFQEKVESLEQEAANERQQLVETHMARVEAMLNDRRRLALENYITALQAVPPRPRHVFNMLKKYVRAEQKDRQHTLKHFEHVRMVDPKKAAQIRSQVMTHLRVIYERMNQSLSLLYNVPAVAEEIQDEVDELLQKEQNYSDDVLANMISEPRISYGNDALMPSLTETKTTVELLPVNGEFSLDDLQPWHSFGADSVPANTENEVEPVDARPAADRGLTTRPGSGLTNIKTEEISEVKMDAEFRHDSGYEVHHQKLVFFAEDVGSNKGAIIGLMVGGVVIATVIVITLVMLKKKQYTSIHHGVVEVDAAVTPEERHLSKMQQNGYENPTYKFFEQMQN

Compound | Activity [1] | pIC50 (Cholinesterase) | pIC50 (Acetylcholinesterase) | viability at 100 µM (PC-12) | inhibition [2]
COc1ccc(/C=C2\CC(C)C/C(=C\c3ccc(OC)c(OC)c3Cl)C2=O)c(Cl)c1OC (centres undefined) | Non-toxic | 4.95 | 5.68 | 58% | 
COc1ccc(/C=C2\COC/C(=C\c3ccc(OC)c(OC)c3Cl)C2=O)c(Cl)c1OC | Non-toxic | < 4.00 | 5.14 | 58% | 
COc1ccc(/C=C2\CC(C(C)C)C/C(=C\c3ccc(OC)c(OC)c3Cl)C2=O)c(Cl)c1OC (centres undefined) | Non-toxic | < 4.00 | 6.04 | 58% | Dose-dependent effect
COc1cc(/C=C2\CN(Cc3ccccc3)C/C(=C\c3cc(OC)c(OC)c(OC)c3Br)C2=O)c(Br)c(OC)c1OC | Non-toxic | < 4.00 | < 4.00 | 58% | 
COc1cccc(/C=C2\CN(C)C/C(=C\c3cccc(OC)c3Cl)C2=O)c1Cl | Non-toxic | < 4.00 | 5.92 | ≤ 92% | 
COc1cccc(/C=C2\CCC/C(=C\c3cccc(OC)c3Cl)C2=O)c1Cl | Non-toxic | < 4.00 | 4.65 | 58% | 
COc1ccc(/C=C2\CN(C)C/C(=C\c3ccc(OC)c(OC)c3Cl)C2=O)c(Cl)c1OC | Non-toxic | 5.54 | 6.20 | ≤ 92% | Dose-dependent effect
COc1cc(/C=C2\CNC/C(=C\c3cc(OC)c(OC)c(OC)c3Br)C2=O)c(Br)c(OC)c1OC | Non-toxic | 4.16 | 5.72 | ≤ 92% | 
COc1cccc(/C=C2\CNC/C(=C\c3cccc(OC)c3Cl)C2=O)c1Cl | Non-toxic | < 4.00 | 5.28 | 58% | 
COc1cc(/C=C2\CC(C(C)C)C/C(=C\c3cc(OC)c(OC)c(OC)c3Br)C2=O)c(Br)c(OC)c1OC (centres undefined) | Non-toxic | < 4.00 | 6.29 | 58% | Dose-dependent effect
COc1cc(/C=C2\CCC/C(=C\c3cc(OC)c(OC)c(OC)c3Br)C2=O)c(Br)c(OC)c1OC | Non-toxic | < 4.00 | 4.90 | 58% | Dose-dependent effect
COc1cc(/C=C2\CN(C)C/C(=C\c3cc(OC)c(OC)c(OC)c3Br)C2=O)c(Br)c(OC)c1OC | Non-toxic | 4.98 | 7.43 | ≤ 92% | Dose-dependent effect
COc1cccc(/C=C2\CC(C(C)C)C/C(=C\c3cccc(OC)c3Cl)C2=O)c1Cl (centres undefined) | Non-toxic | < 4.00 | 5.89 | 58% | 
COc1ccc(/C=C2\CN(Cc3ccccc3)C/C(=C\c3ccc(OC)c(OC)c3Cl)C2=O)c(Cl)c1OC | Non-toxic | < 4.00 | < 4.00 | 58% | 
COc1cc(/C=C2\COC/C(=C\c3cc(OC)c(OC)c(OC)c3Br)C2=O)c(Br)c(OC)c1OC | Non-toxic | < 4.00 | 5.82 | ≤ 92% | 
COc1cccc(/C=C2\CC(C)C/C(=C\c3cccc(OC)c3Cl)C2=O)c1Cl (centres undefined) | Non-toxic | 4.30 | 5.25 | 58% | 
COc1ccc(/C=C2\CCC/C(=C\c3ccc(OC)c(OC)c3Cl)C2=O)c(Cl)c1OC | Non-toxic | < 4.00 | 4.76 | 58% | 
COc1cccc(/C=C2\COC/C(=C\c3cccc(OC)c3Cl)C2=O)c1Cl | Non-toxic | < 4.00 | 5.02 | 58% | 
COc1cccc(/C=C2\CN(Cc3ccccc3)C/C(=C\c3cccc(OC)c3Cl)C2=O)c1Cl | Non-toxic | < 4.00 | < 4.00 | 58% | 
COc1ccc(/C=C2\CNC/C(=C\c3ccc(OC)c(OC)c3Cl)C2=O)c(Cl)c1OC | Non-toxic | 4.78 | 5.43 | 58% | 
COc1cc(/C=C2\CC(C)C/C(=C\c3cc(OC)c(OC)c(OC)c3Br)C2=O)c(Br)c(OC)c1OC (centres undefined) | Non-toxic | 4.71 | 5.82 | ≤ 92% | 
